In patent US20230398130A1, “METHODS AND COMPOSITIONS FOR DIFFERENTIATING STEM CELLS” (Massachusetts Institute of Technology, priority 2020, published 2023):

Tests used:
[1] = tested on: ISC-enriched organoids; assay: Primary screen, 384-well 2.5-D organoid differentiation (ENR+CD, 6 days): basal lysozyme secretion (LYZ.NS); assay type: cell-based, murine; conditions: for Dose.FC.LYZ.NS: FC vs plate median; for Z.LYZ.NS: standard z score of FC; for Dose.FC.LYZ.NS (log 2 fold change): vs plate median
Description: (§1) High-throughput screening.

[2] = tested on: ISC-enriched organoids; assay: Primary screen, 384-well 2.5-D organoid differentiation (ENR+CD, 6 days): carbachol-induced lysozyme secretion (LYZ.S); assay type: cell-based, murine; conditions: for Dose.FC.LYZ.S: FC vs plate median; for Dose.FC.LYZ.S (log 2 fold change): vs plate median
Description: as §1

[3] = tested on: ISC-enriched organoids; assay: Primary screen, 384-well 2.5-D organoid differentiation (ENR+CD, 6 days, Target Selective Inhibitor Library, vs whole-plate median): ATP (CellTiter-Glo 3D, CTG); conditions: for Dose.FC.CTG: FC vs plate median; for Z.CTG: standard z score of FC; for Dose.FC.CTG (log 2 fold change): vs plate median

## COc1ccc(C[C@@H](C)NC[C@H](O)c2ccc(O)c(NC=O)c2)cc1.COc1ccc(C[C@@H](C)NC[C@H](O)c2ccc(O)c(NC=O)c2)cc1.O=C(O)/C=C/C(=O)O [Formoterol Hemifumarate]
[1]; Dose 0.08 uM, ENR+CD, 6 days
  Dose.FC.LYZ.NS: 0.145 log 2 fold change
[1]; Dose 0.08 uM
  Z.LYZ.NS: 1.263
[1]; Dose 0.40 uM, ENR+CD, 6 days
  Dose.FC.LYZ.NS: 0.073 log 2 fold change
[1]; Dose 0.40 uM
  Z.LYZ.NS: 0.638
[1]; Dose 2.00 uM, ENR+CD, 6 days
  Dose.FC.LYZ.NS: 0.048 log 2 fold change
[1]; Dose 2.00 uM
  Z.LYZ.NS: 0.420
[1]; Dose 10.00 uM, ENR+CD, 6 days
  Dose.FC.LYZ.NS: 0.013 log 2 fold change
[1]; Dose 10.00 uM
  Z.LYZ.NS: 0.114
[2]; Dose 0.08 uM, ENR+CD, 6 days
  Dose.FC.LYZ.S: 0.206 log 2 fold change
[2]; Dose 0.40 uM, ENR+CD, 6 days
  Dose.FC.LYZ.S: 0.293 log 2 fold change
[2]; Dose 2.00 uM, ENR+CD, 6 days
  Dose.FC.LYZ.S: 0.090 log 2 fold change
[2]; Dose 10.00 uM, ENR+CD, 6 days
  Dose.FC.LYZ.S: 0.011 log 2 fold change
[3]; Dose 0.08 uM, ENR+CD, 6 days
  Dose.FC.CTG: 0.294 log 2 fold change
[3]; Dose 0.08 uM
  Z.CTG: 0.703
[3]; Dose 0.40 uM, ENR+CD, 6 days
  Dose.FC.CTG: 0.265 log 2 fold change
[3]; Dose 0.40 uM
  Z.CTG: 0.633
[3]; Dose 2.00 uM, ENR+CD, 6 days
  Dose.FC.CTG: 0.242 log 2 fold change
[3]; Dose 2.00 uM
  Z.CTG: 0.578
[3]; Dose 10.00 uM, ENR+CD, 6 days
  Dose.FC.CTG: 0.253 log 2 fold change
[3]; Dose 10.00 uM
  Z.CTG: 0.604

## O=C(Nc1ccccc1Br)N[C@@H]1CCN(c2ccc(C(F)(F)F)cn2)C1 [SB705498]
[1]; Dose 0.08 uM, primary screen
  Z.LYZ.NS (standard z score): 0.642
  Dose.FC.LYZ.NS (log 2 fold change): 0.074
[1]; Dose 0.40 uM, primary screen
  Z.LYZ.NS (standard z score): −0.433
  Dose.FC.LYZ.NS (log 2 fold change): −0.050
[1]; Dose 2.00 uM, primary screen
  Z.LYZ.NS (standard z score): −0.008
  Dose.FC.LYZ.NS (log 2 fold change): −0.001
[1]; Dose 10.00 uM, primary screen
  Z.LYZ.NS (standard z score): −0.154
  Dose.FC.LYZ.NS (log 2 fold change): −0.018
[2]; Dose 0.08 uM, primary screen
  Dose.FC.LYZ.S (log 2 fold change): 0.094
[2]; Dose 0.40 uM, primary screen
  Dose.FC.LYZ.S (log 2 fold change): 0.023
[2]; Dose 2.00 uM, primary screen
  Dose.FC.LYZ.S (log 2 fold change): −0.030
[2]; Dose 10.00 uM, primary screen
  Dose.FC.LYZ.S (log 2 fold change): −0.023
[3]; Dose 0.08 uM, primary screen
  Z.CTG (standard z score): 0.318
  Dose.FC.CTG (log 2 fold change): 0.133
[3]; Dose 0.40 uM, primary screen
  Z.CTG (standard z score): −0.102
  Dose.FC.CTG (log 2 fold change): −0.043
[3]; Dose 2.00 uM, primary screen
  Z.CTG (standard z score): −0.009
  Dose.FC.CTG (log 2 fold change): −0.004
[3]; Dose 10.00 uM, primary screen
  Z.CTG (standard z score): −0.089
  Dose.FC.CTG (log 2 fold change): −0.037

## CC(C)(Cc1ccc2ccccc2c1)NC[C@@H](O)COc1cccc(Cl)c1C#N [NPS-2143]
[1]; Dose 0.08 uM, primary screen
  Dose.FC.LYZ.NS: 0.162 log 2 fold change
[1]; Dose 0.08 uM
  Z.LYZ.NS: 1.413
[1]; Dose 0.40 uM, primary screen
  Dose.FC.LYZ.NS: −0.048 log 2 fold change
[1]; Dose 0.40 uM
  Z.LYZ.NS: −0.416
[1]; Dose 2.00 uM, primary screen
  Dose.FC.LYZ.NS: −0.077 log 2 fold change
[1]; Dose 2.00 uM
  Z.LYZ.NS: −0.674
[1]; Dose 10.00 uM, primary screen
  Dose.FC.LYZ.NS: −0.069 log 2 fold change
[1]; Dose 10.00 uM
  Z.LYZ.NS: −0.597
[2]; Dose 0.08 uM, primary screen
  Dose.FC.LYZ.S: 0.147 log 2 fold change
[2]; Dose 0.40 uM, primary screen
  Dose.FC.LYZ.S: −0.062 log 2 fold change
[2]; Dose 2.00 uM, primary screen
  Dose.FC.LYZ.S: −0.161 log 2 fold change
[2]; Dose 10.00 uM, primary screen
  Dose.FC.LYZ.S: −0.116 log 2 fold change
[3]; Dose 0.08 uM, primary screen
  Dose.FC.CTG: 0.149 log 2 fold change
[3]; Dose 0.08 uM
  Z.CTG: 0.356
[3]; Dose 0.40 uM, primary screen
  Dose.FC.CTG: −0.195 log 2 fold change
[3]; Dose 0.40 uM
  Z.CTG: −0.466
[3]; Dose 2.00 uM, primary screen
  Dose.FC.CTG: −0.246 log 2 fold change
[3]; Dose 2.00 uM
  Z.CTG: −0.587
[3]; Dose 10.00 uM, primary screen
  Dose.FC.CTG: −0.118 log 2 fold change
[3]; Dose 10.00 uM
  Z.CTG: −0.282
